According to patent US4707481A, “Pyridazinones, their preparation and use, and bronchospasmolytic medicaments containing pyridazinones” (BYK Gulden Lomberg Chemische Fabrik GmbH, priority 1983, dated 1987):
Like-named read-outs stand apart in the source and are kept apart here.

Assays:
[1] = test system: chain of tracheal rings of guinea pigs; assay: relaxing action on chain of tracheal rings in vitro (bronchospasmolytic action); parameters: species or system guinea pig; conditions: for EC50: Cavia porcellus, Column A, negative logarithm of EC50 in mol/l, 50% of maximum relaxation by (-)isoprenaline, read-out: -lg[EC50] trachea (converted); for [EC40 pot.] left atrium / [EC50] trachea: Column C, measure of organ-selective activity; for [EC50] theophylline / [EC50] substance: Column D, trachea
Description: The relaxing action of the 6-aryl-3[2H]pyridazinones I has been tested in vitro on a chain of tracheal rings (Tr.) of guinea pigs. […] The quotient of [EC40pot. ]left atrium and [ED50 ]trachea serves as a measure of the organ-selective activity.
The bronchospasmolytic action of the compounds on the chain of tracheal rings of the guinea pig was tested in vitro:
Four parallel chains of tracheal rings, each consisting of 6 individual rings, of guinea pigs(.male. and .female., 430-600 g) in an organ bath [5 ml, Krebs-Henseleit solution with added phentolamine (10^-5 mol/l), 37° C., initial tension of the organs 2 g, gassing with carbogen] develop a stable, spontaneous tonic contraction after about 20 to 30 minutes. […] Over a period of 20 to 30 minutes, a complete dose/action curve of the test substance is thus obtained. The particular relaxation is expressed as a percentage fraction of the maximum relaxation which can be achieved by administration of (-)isoprenaline (10^-6 mol/1). The concentration of the test substance which causes 50% of the maximum relaxation which can be achieved, expressed by the negative logarithm of the EC50 mol/l: -lg[EC50 ]is a measure of the bronchodilator activity.

[2] = test system: electrically stimulated left atrium of rats; assay: positive inotropic action on electrically stimulated left atrium in vitro; parameters: species or system rat; conditions: for EC40: Rattus norvegicus, Column B, negative logarithm of EC40pot in mol/l, 40% increase in contraction force, read-out: -lg[EC40 pot.] left atrium (converted); for [EC40 pot.] theophylline / [EC40 pot.] substance: Column E, left atrium
[3] = toxicity studies, mouse p.o.; conditions: in vivo, po; for LD50 at 168 h: Column F, mouse p.o., 7 days observation, read-out: Approximate LD50
Description: The toxicity studies are carried out on female NMRI mice (body weight 23-30 g). The animals (5 animals per dose) receive food and water ad libitum. Various doses of the substances are administered once as a suspension in methocel via a gavage. The period of observation lasts 7 days. The tolerated dose (TD), that is to say the highest dose at which as yet none of the animals die, is determined by observation. The average lethal dose (LD50), that is to say the dose at which 50% of the animals die, is determined from the dose/action curve by means of linear regression.

[4] = test system: histamine-induced bronchospasm; assay: inhibition of histamine-induced bronchospasm in anesthetized guinea pigs; assay type: in vivo, guinea pig; conditions: for inhibition of histamine-induced bronchospasm, TVi / inhibition of histamine-induced bronchospasm, Vmaxe / inhibition of histamine-induced bronchospasm, Vmaxi: 20 μmol/kg i.v.
Description: A method for simultaneously recording pharmacodynamic and toxic effects on internal sensitive receptors, on the respiration and the cardiovascular system of guinea pigs was used [U. Kilian, E. Muller, E. Ch. […] To characterize the bronchospasm induced by histamine (0.09-0.18 μmol /kg i.v.), the maximum flow rate of the respiratory air during inspiration (Vmaxi) and expiration (Vmaxe) and the breath volume (BVi) were measured. A histamine spasm before administration of the substance was compared with several histamine spasms after administration of the substance. The test substances were administered intravenously (i.v.) and/or intrajejunally (i.j.). 5 to 10 animals were used per measurement, and the arithmetic mean was calculated from the results.

[5] = test system: guinea pig hearts isolated and perfused by the Langendorff method; assay: left-ventricular pressure and heart rate in isolated perfused Langendorff hearts; conditions: for Emax: Cavia porcellus; for EC20 left-ventricular pressure: dose which leads to a 20% increase in left ventricular pressure
From the text: After the animals have been sacrificed by a blow to the neck and exsanguination through the carotid arteries, the thoracic cavity is opened, and the aorta is exposed and looped up with a thread. A cannula, which is attached by tubing to the apparatus from which the nutrient solution slowly drops, is introduced in the direction of the heart and the heart is, quickly after removal from the thorax, connected to the perfusion apparatus. A balloon probe, connected to a Statham pressure sensor, is advanced through a cut through the left atrium into the left ventricle, and is provided with an initial pressure of 40 mm Hg. […] The nutrient solution flowing freely from the coronary sinus into the right atrium is measured with a flow […]) and, together with the change in the left-ventricular pressure and the heart rate determined from this, is recorded on a Watanabe recorder. The substances are administered in a volume of 0.1 ml of nutrient solution, in the dosage indicated in Tab.

[6] = test system: acetylcholine-induced bronchospasm; assay: protective effect against acetylcholine-induced bronchospasm in conscious guinea pigs; assay type: in vivo, guinea pig; conditions: for Doubling of the latency period / Tripling of the latency period: 30 min; for Tripling of the latency period: figure in parentheses
Description: The figure in parentheses indicates the number out of 10 animals in which the latency period more than tripled.
The latency period is to be understood to be the time from the start of acetylcholine-atomization until clear signs of asthma appeared.
The time from the start of atomization to the onset of clear respiratory exertion (in certain circumstances, hypoxic convulsion in the lateral position) is measured, and is denoted the latency period.
The test substance is administered orally by gavage (standard dose 100 μmol/kg, volume 1 ml of 4% strength methocel suspension in 0.9% strength sodium chloride solution/kg). […] Prolongation of the latency period to at least twice its length is regarded as a protective effect.

[7] = test system: right ventricle of guinea pigs; assay: heart function dP/dtmax, right ventricle of anesthetized guinea pigs; assay type: in vivo, guinea pig
Description: The effect of the substances on the contractility of the heart of guinea pigs is tested on animals (.male., 400 to 1000 g) under urethane anesthesia. The change in pressure in the right ventricle of the heart is measured with a tip catheter introduced through the right jugular vein and the maximum rate of pressure rise (dP/dtmax) is determined from this. The heart rate is derived from the pressure waves. […] The test substances were administered intravenously. 5-7 animals were used for each measurement, and the arithmetic mean was calculated from the results.

[8] = after 500 nMol, read-out: Emax left-ventricular pressure
[9] = at Emax, 500 nMol, read-out: Percentage increase in heart rate at Emax

Row | Compound | EC50 [1] | [EC40 pot.] left atrium / [EC50] trachea [1] | [EC50] theophylline / [EC50] substance [1] | EC40 [2] | LD50 at 168 h [3] | [EC40 pot.] theophylline / [EC40 pot.] substance [2] | Percentage increase in heart rate at EC20 [5] | EC20 left-ventricular pressure [5] | Emax [5, 8] | Emax [5, 9] | further results
1 | COc1ccc(-c2ccc(=O)[nH]n2)cc1OC(C)C [Serial No. 11, 6-(4-methoxy-3-isopropoxyphenyl)-3[2H]pyridazinone] | 0.0977 µM | 10000 | 1370 | > 1000 µM | 600 mg/kg |  |  |  |  |  | inhibition of histamine-induced bronchospasm, TVi ([4]; 2 min): 117%; inhibition of histamine-induced bronchospasm, Vmaxe ([4]; 2 min): 123%; inhibition of histamine-induced bronchospasm, Vmaxi ([4]; 2 min): 152%; inhibition of histamine-induced bronchospasm, TVi ([4]; 10 min): 84%; inhibition of histamine-induced bronchospasm, Vmaxe ([4]; 10 min): 109%; inhibition of histamine-induced bronchospasm, Vmaxi ([4]; 10 min): 113%; inhibition of histamine-induced bronchospasm, TVi ([4]; 20 min): 54%; inhibition of histamine-induced bronchospasm, Vmaxe ([4]; 20 min): 63%; inhibition of histamine-induced bronchospasm, Vmaxi ([4]; 20 min): 89%; inhibition of histamine-induced bronchospasm, TVi ([4]; 30 min): 38%; inhibition of histamine-induced bronchospasm, Vmaxe ([4]; 30 min): 43%; inhibition of histamine-induced bronchospasm, Vmaxi ([4]; 30 min): 47%; inhibition of histamine-induced bronchospasm, TVi ([4]; 60 min): 5%; inhibition of histamine-induced bronchospasm, Vmaxe ([4]; 60 min): 6%; inhibition of histamine-induced bronchospasm, Vmaxi ([4]; 60 min): 9%; inhibition of histamine-induced bronchospasm compared with theophylline ([4]; result in words): significantly more effective than theophylline
2 | COc1ccc(-c2ccc(=O)[nH]n2)cc1 [compound 19] | 8.91 µM | 19.1 | 15.1 | 170 µM |  | 4.7 | 6% | 160 nmol |  |  | tolerated dose ([3]; mouse, 10080 min): > 400; Emax ([5]; after 1000 nMol, read-out: Emax left-ventricular pressure): 45%; Emax ([5]; at Emax, 1000 nMol, read-out: Percentage increase in heart rate at Emax): 11%
3 | C=CCOc1cc(-c2ccc(=O)[nH]n2)ccc1OC [compound 9] | 0.537 µM | 2.3 | 251 | 1.26 µM | 610 mg/kg | 331 | 7% | 50 nmol | 53% | 21% | 
4 | CCCOc1cc(-c2ccc(=O)[nH]n2)ccc1OC [Serial No. 10, 6-(4-methoxy-3-n-propoxyphenyl)-3[2H]pyridazinone] | 0.468 µM | 1.3 | 288 | 0.631 µM | 770 mg/kg | 661 | 9% | 40 nmol | 61% | 19% | Doubling of the latency period ([6]; 100 μmol/kg p.o.): 6 N of 10 animals; Tripling of the latency period ([6]; 100 μmol/kg p.o.): 6 N of 10 animals; Doubling of the latency period ([6]; 300 μmol/kg p.o.): 10 N of 10 animals; Tripling of the latency period ([6]; 300 μmol/kg p.o.): 8 N of 10 animals; protective effect compared with theophylline ([6]; result in words): greater protective effect; Percentage change in dP/dtmax ([7]; 0.3 μmol/kg i.v., 0-10 min (Maximum)): 42%; Percentage change in dP/dtmax ([7]; 0.3 μmol/kg i.v., 10 min): 16%; Percentage change in dP/dtmax ([7]; 0.3 μmol/kg i.v., 30 min): 21%; Percentage change in dP/dtmax ([7]; 1 μmol/kg i.v., 0-10 min (Maximum)): 97%; Percentage change in dP/dtmax ([7]; 1 μmol/kg i.v., 10 min): 45%; Percentage change in dP/dtmax ([7]; 1 μmol/kg i.v., 30 min): 46%; Percentage change in dP/dtmax ([7]; 3 μmol/kg i.v., 0-10 min (Maximum)): 164%; Percentage change in dP/dtmax ([7]; 3 μmol/kg i.v., 10 min): 90%; Percentage change in dP/dtmax ([7]; 3 μmol/kg i.v., 30 min): 66%
5 | CCCOc1ccc(-c2ccc(=O)[nH]n2)cc1OC [compound 2] | 0.417 µM |  |  | 7.24 µM | 530 mg/kg |  |  |  |  |  | Emax ([5]; after 300 nMol, read-out: Emax left-ventricular pressure): 59%; Emax ([5]; at Emax, 300 nMol, read-out: Percentage increase in heart rate at Emax): 13%
